Source: article PMC9395446, “First-in-human phase 1/1b study to evaluate sitravatinib in patients with advanced solid tumors” (Investigational New Drugs, 2022)

System: advanced solid tumors
Test: Clinical activity by RECIST v1.1 (ORR, DoR, PFS, OS), phase 1b
Type: in vivo, human
Method: Clinical activity was assessed by objective response rate (ORR) according to Response Evaluation Criteria In Solid Tumors (RECIST) v1.1. Additional endpoints included duration of response (DoR), progression-free survival (PFS) and overall survival (OS) in phase 1b cohorts of patients based on diagnosis and tumor molecular alterations. An exploratory post-hoc analysis of patients with non-squamous NSCLC who experienced disease progression on prior checkpoint inhibitor (CPI) therapy was performed.
Disease status was evaluated according to RECIST v1.1 at baseline and every three cycles in phase 1, and every two cycles (6-week intervals) in phase 1b. Assessments were performed until objective disease progression was documented or until subsequent anti-cancer therapy started (see Supplementary Information [Sect. 1.3] for details).
DoR, PFS and OS were reported descriptively and summarized using the Kaplan–Meier method. DoR was defined as the time from first documentation of objective tumor response (complete response [CR] or partial response [PR]) until first documentation of disease progression per RECIST 1.1 or death (any cause). PFS was defined as the time from first dose of study treatment until progressive disease as defined by RECIST 1.1 or death (any cause). OS was defined as the time from first dose of study treatment until death (any cause).

[1] = NSCLC with molecular alterations (n = 53)
[2] = non-squamous NSCLC with prior CPI experience (n = 24)
[3] = phase 1b Chr4q12 amplification (n=16)

COCCNCc1ccc(-c2cc3nccc(Oc4ccc(NC(=O)C5(C(=O)Nc6ccc(F)cc6)CC5)cc4F)c3s2)nc1 [sitravatinib, Sitravatinib]
ORR (NSCLC with a molecular alteration of interest): 13.2%
CR [1]: 0 n (%)
DoR 6-month KM estimate (95% CI) [1]: 28.6 (4.1, 61.2) %
DoR median (95% CI) [1]: 3.0 (1.8, 10.2) months
NE (non-evaluable) [1]: 8 (15.1) n (%)
ORR [1]: 7 (13.2) n (%)
OS 12-month KM estimate (95% CI) [1]: 47.6 (32.4, 61.3) %
OS median (95% CI) [1]: 11.6 (6.6, 18.2) months
PD (progressive disease) [1]: 8 (15.1) n (%)
PFS 6-month KM estimate (95% CI) [1]: 32.2 (19.2, 46.0) %
PFS median (95% CI) [1]: 4.3 (2.9, 5.7) months
PR [1]: 7 (13.2) n (%)
ORR (non-squamous NSCLC with prior CPI experience (exploratory)): 4.2%
CR [2]: 0 n (%)
DoR 6-month KM estimate (95% CI) [2]: 100 (100, 100) %
DoR median (95% CI) [2]: 10.2 (NE, NE) months
NE (non-evaluable) [2]: 6 (25.0) n (%)
ORR [2]: 1 (4.2) n (%)
OS 12-month KM estimate (95% CI) [2]: 36.8 (16.5, 57.5) %
OS median (95% CI) [2]: 5.2 (2.4, 33.8) months
PD (progressive disease) [2]: 5 (20.8) n (%)
PFS 6-month KM estimate (95% CI) [2]: 24.8 (7.8, 46.6) %
PFS median (95% CI) [2]: 2.9 (1.5, 4.9) months
PR [2]: 1 (4.2) n (%)
ORR (overall phase 1b mITT population): 11.8%
CR (phase 1b AXL alteration (n=7)): 0 n (%)
NE (phase 1b AXL alteration (n=7)): 0 n (%)
ORR (phase 1b AXL alteration (n=7)): 1 (14.3) n (%)
OS 12-month KM estimate (95% CI) (phase 1b AXL alteration (n=7)): 26.8 (1.3, 67.0) %
OS median (95% CI) (phase 1b AXL alteration (n=7)): 10.0 (2.2, NE) months
PD (progressive disease) (phase 1b AXL alteration (n=7)): 2 (28.6) n (%)
PFS 6-month KM estimate (95% CI) (phase 1b AXL alteration (n=7)): 71.4 (25.8, 92.0) %
PFS median (95% CI) (phase 1b AXL alteration (n=7)): NR (1.2, NE)
PR (phase 1b AXL alteration (n=7)): 1 (14.3) n (%)
CR (phase 1b CBL alteration (n=31)): 0 n (%)
DoR 6-month KM estimate (95% CI) (phase 1b CBL alteration (n=31)): 50.0 (0.6, 91.0) %
DoR median (95% CI) (phase 1b CBL alteration (n=31)): NR (4.3, NE)
NE (phase 1b CBL alteration (n=31)): 9 (29.0) n (%)
ORR (phase 1b CBL alteration (n=31)): 2 (6.5) n (%)
OS 12-month KM estimate (95% CI) (phase 1b CBL alteration (n=31)): 20.2 (7.4, 37.3) %
OS median (95% CI) (phase 1b CBL alteration (n=31)): 5.0 (3.2, 9.9) months
PD (progressive disease) (phase 1b CBL alteration (n=31)): 9 (29.0) n (%)
PFS 6-month KM estimate (95% CI) (phase 1b CBL alteration (n=31)): 12.3 (3.1, 28.3) %
PFS median (95% CI) (phase 1b CBL alteration (n=31)): 2.0 (1.3, 4.1) months
PR (phase 1b CBL alteration (n=31)): 2 (6.5) n (%)
CR (phase 1b CRPC (n=10)): 0 n (%)
NE (phase 1b CRPC (n=10)): 3 (30.0) n (%)
ORR (phase 1b CRPC (n=10)): 0 n (%)
OS 12-month KM estimate (95% CI) (phase 1b CRPC (n=10)): 18.2 (0.8, 54.5) %
OS median (95% CI) (phase 1b CRPC (n=10)): 10.1 (2.8, 23.2) months
PD (progressive disease) (phase 1b CRPC (n=10)): 1 (10.0) n (%)
PFS 6-month KM estimate (95% CI) (phase 1b CRPC (n=10)): 50.0 (11.1, 80.4) %
PFS median (95% CI) (phase 1b CRPC (n=10)): 5.8 (2.1, NE) months
PR (phase 1b CRPC (n=10)): 0 n (%)
CR [3]: 0 n (%)
NE [3]: 4 (25.0) n (%)
ORR [3]: 0 n (%)
OS 12-month KM estimate (95% CI) [3]: 35.2 (13.3, 58.2) %
OS median (95% CI) [3]: 9.5 (3.6, 18.1) months
PD (progressive disease) [3]: 3 (18.8) n (%)
PFS 6-month KM estimate (95% CI) [3]: 23.8 (5.8, 48.5) %
PFS median (95% CI) [3]: 2.7 (1.3, 4.4) months
PR [3]: 0 n (%)
CR (phase 1b MET alteration (n=17)): 0 n (%)
DoR median (95% CI) (phase 1b MET alteration (n=17)): NR (3.0, NE)
NE (phase 1b MET alteration (n=17)): 3 (17.6) n (%)
ORR (phase 1b MET alteration (n=17)): 2 (11.8) n (%)
OS 12-month KM estimate (95% CI) (phase 1b MET alteration (n=17)): 27.1 (8.4, 50.2) %
OS median (95% CI) (phase 1b MET alteration (n=17)): 7.3 (3.5, 13.9) months
